{"source": "patent US9682109B2", "about": "“Antiviral resistance mutants and applications thereof” (ABL SA, priority 2005, dated 2017)", "origin": "cited, not measured here", "key": {"HBV [1]": {"tested_on": "HBV"}, "[2]": {"tested_on": "wild-type and lamivudine-resistant strains of HBV"}, "HBV [3]": {"tested_on": "HBV", "conditions": "30 mg daily dose, over 12 weeks, phase II studies (Heathcote et al 1998)"}}, "note": "Structures can show the parent of a compound that is named as a salt."}
{"smiles": "CC(C)OC(=O)OCOP(=O)(CO[C@H](C)Cn1cnc2c(N)ncnc21)OCOC(=O)OC(C)C", "note": "[TFV, tenofovir disoproxil fumarate]", "values": [{"measurement": "antiviral activity against HBV", "setting": "HBV [1]", "value": "antiviral activity"}, {"measurement": "antiviral activity against HIV", "setting": "HIV", "value": "antiviral activity"}]}
{"smiles": "CC(C)(C)C(=O)OCOP(=O)(COCCn1cnc2c(N)ncnc21)OCOC(=O)C(C)(C)C", "note": "[ADV, adefovir dipivoxil]", "values": [{"measurement": "clinical activity", "setting": "[2]", "value": "demonstrated clinical activity"}, {"measurement": "mean decrease in viremia", "setting": "HBV [3]", "value": 4, "unit": "log10"}, {"measurement": "inhibitor of HBV replication", "setting": "HBV replication", "value": "potent inhibitor"}]}
{"smiles": "Nc1nc(=O)n([C@@H]2CS[C@H](CO)O2)cc1F", "note": "[FTC, (−)-β-L-2′-3′-dideoxy-5-fluoro-3′-thiacydidine]", "values": [{"measurement": "antiviral activity against HBV", "setting": "HBV [1]", "value": "activity"}, {"measurement": "antiviral activity against HIV", "setting": "HIV", "value": "activity"}]}
